Data on two molecules can be found in patent US3943154A, “Acylamides of beta-cyano-ethenesulfonyl substituted aminoarenes” (Sanitized Incorporated, priority 1973, dated 1976).

Data set [1] has as its system Aspergillus niger ATCC 6257. Kind of data set: agar incorporation test, antifungal activity. The data set is classed as cell-based. The following applies: Aspergillus niger, ATCC6257, 96 h, lowest concentration showing no growth or sporulation, four days at 28° C, read-out: Antifungal Activity A. niger, minimum inhibitory concentration.
Data set [2] can be described thus: stability of the recovered product. The format is physicochemical. The following applies: recovered by filtration and drying at low temperature under vacuum. As for the experimental part: 10.4 g (0.05 mol) of 2-cyanovinyl 4-aminophenyl sulfone is dissolved in 100 ml of acetone and the solution cooled to 0° C. […] of phosphorus trichloride dissolved in 20 ml of acetone is added dropwise with stirring. After about 40 minutes the reaction mixture is poured into ice water with vigorous stirring. The intermediate initially formed hydrolyzes easily upon the addition of water to form di-4-(2-cyanoethenesulfonyl)anilidophosphine oxide, which can be recovered by filtration and drying at low temperature under vacuum.

In data set [3] the test system is Staphylococcus aureus ATCC 6538 DR. Kind of data set: button assay, antibacterial activity. The data set is classed as cell-based. The following applies: Staphylococcus aureus, ATCC6538, 24 h, read-out: Antibacterial Activity S.aureus, minimum inhibitory concentration.
Data set [4] concerns Bacillus subtilis ATCC 9525. Kind of data set: button assay, antibacterial activity. The data set is classed as cell-based. Conditions: Bacillus subtilis, ATCC9525, lowest concentration showing a clear zone of inhibition, 24 hours at 37° C, read-out: Antibacterial Activity B.subtilis, minimum inhibitory concentration.
Data set [5] has as its system Salmonella typhosa ATCC 6539. Kind of data set: button assay, antibacterial activity. The data set is classed as cell-based. The following applies: Salmonella enterica, 24 h, read-out: Antibacterial Activity S.typhosa, minimum inhibitory concentration.
Data set [6] is described as follows: solubility of the product in solvents. The data set is classed as physicochemical. The procedure: Naphthalene-2,6-disulfonyl chloride (6.2 g, 0.02 mol) is dissolved in 100 ml dimethylformamide; to the solution is added, in 2-3 portions over about a minute, a solution of 3-(4-aminobenzenesulfonyl)acrylonitrile in 50 ml dimethylformamide containing 6 ml triethylamine (8.4 g, 0.04 mol). The temperature rises to 35° C by the exothermic reaction. The reaction mixture is maintained at room temperature for 2 hours and filtered to separate triethylamine hydrochloride therefrom. Addition of chloroform to the filtrate precipitates the product which, after washing with ethanol/water and drying, is in the form of a slightly off-white powder having a melting point of 312° C. […] It is naphthalene-2,6-bis-sulfon-[4-(2-cyanoethenesulfonyl)anilide]: ##SPC42##

Values after ≈ are worked out from the molar mass of the structure shown.

With `N#CC=CS(=O)(=O)c1ccc(N[PH](=O)Nc2ccc(S(=O)(=O)C=CC#N)cc2)cc1` [Example 57, di-4-(2-cyanoethenesulfonyl)anilidophosphine oxide], the MIC was 100 µg/mL (≈ 216 µM) in data set [1], 20 µg/mL (≈ 43.2 µM) in data set [3], 20 µg/mL (≈ 43.2 µM) in data set [4] and 20 µg/mL (≈ 43.2 µM) in data set [5]. In addition, in data set [2], the “stability of the product” value is recorded as “somewhat unstable”.

For `N#CC=CS(=O)(=O)c1ccc(NS(=O)(=O)c2ccc3cc(S(=O)(=O)Nc4ccc(S(=O)(=O)C=CC#N)cc4)ccc3c2)cc1` [Example 37, naphthalene-2,6-bis-sulfon-[4-(2-cyanoethenesulfonyl)anilide]], the MIC in data set [1] is 1000 µg/mL (≈ 1500 µM); in data set [3] it was 20 µg/mL (≈ 29.9 µM); in data set [4], 50 µg/mL (≈ 74.8 µM); in data set [5], 20 µg/mL (≈ 29.9 µM). The “solubility in dimethylformamide and dimethylsulfoxide” value in data set [6] (dimethylformamide, dimethylsulfoxide) is listed as “soluble”. For the same molecule, the “solubility in ethanol, chloroform and acetone” value in data set [6] (ethanol, chloroform, acetone) was “almost insoluble”.
